Measurements reported in patent publication US20260028338A1, “HETEROBIFUNCTIONAL COMPOUNDS AND METHODS OF TREATING DISEASE” (Halda Therapeutics OpCo, Inc., priority 2023, published 2026).

Experiments:
[1] = test system: T-Rex 293 cell line SC cells lacking increased expression of BCL6 protein; assay: Cellular growth inhibition assay, T-Rex 293 SC cells without doxycycline (CellTiter-Glo); assay type: cell-based; settings: T-Rex 293 SC cells not exposed to doxycycline (no increased BCL6 expression), 72 hours, CellTiter-Glo 2.0
[2] = target: T1, His-tagged BRD4 BD1 (46-168) (Homo sapiens, UniProt O60885); assay: AlphaLISA competition assay, BRD4 BD1; assay type: binding; settings: BRD4-BD1, AlphaLISA competition with biotinylated histone H4K5/8/12/16(Ac) peptide, 10 nM
T1 construct: His-tagged BRD4 BD1 (46-168) and biotinylated histone H4K5/8/12/16(Ac) peptide
Procedure, shortened: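 His-tagged BRD4 BD1 (46-168) and biotinylated H4K5/8/12/16(Ac) peptide, each 10 nM final, in 20 mM HEPES pH 7.5, 100 mM NaCl, 0.5 mM TCEP, 0.1% BSA, 0.02% CHAPS; compounds incubated 1 h at room temperature. Streptavidin acceptor and Ni-chelate donor beads added; IC50 from AlphaLISA signal.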

[3] = test system: Su-DHL-4 cell line; assay: Cellular growth inhibition assay, Su-DHL-4 cells (CellTiter-Glo); assay type: cell-based; settings: Homo sapiens; Su-DHL-4 cell line (DLBCL), 72 hours, CellTiter-Glo 2.0
Experimental: Exemplary compounds were tested for ability to inhibit the proliferation of Su-DHL-4 and Farage cells. Su-DHL-4 and Farage cells are commercially available diffuse large B cell lymphoma cell lines (DLBCL).
Su-DHL-4 and Farage cells were purchased from American Type Cell Culture (ATCC Cat #CRL-2957/CRL-2630) and then seeded on poly-D-lysine coated, black clear-bottom 384-well plates at 3000/well in 25 μL Roswell Park Memorial Institute media (RPMI-1640) supplemented with 10% w/w Fetal bovine serum (FBS) and 1% w/w Pen-Strep. Pen-Strep is a commercially available mixture of penicillin G and streptomycin, which is used in mammalian cell culture media to prevent bacterial contamination. Roswell Park Memorial Institute media (RPMI-1640) supplemented with 10% w/w fetal bovine serum (FBS), and 1% w/w Pen-Strep is herein referred to as Treatment Medium. Following seeding of cells in the plates, the plates were spun at 300×g for 30 seconds, then equilibrated to room temperature for 30 minutes, and then deposited in a humidified tissue culture incubator maintained at 37° C. with 5% CO2.
At 24 hours after seeding of the cells, dilutions of test compound were prepared in DMSO and dissolved in Treatment Medium, to achieve a final DMSO concentration of 0.5% w/w, thereby providing the Test Compound Solution. A 25 μL aliquot of the Test Compound Solution was added to cells in the well plates. An equal volume of a solution containing DMSO and Treatment Medium was used as a negative control. Following treatment of cells with Test Compound Solution or said equal volume of a solution containing DMSO and Treatment Medium, the plates were spun at 300×g for 30 seconds, and then left in an incubator for 72 hours.
At the end of the treatment duration, cell viability was quantified with CellTiter-Glo 2.0 reagent (Promega Cat #G9243). For this purpose, plates were equilibrated to room temperature for 30 minutes, and then 25 μL of CellTiter-Glo 2.0 reagent was added to cells in the plate wells. Plates were then agitated on a shaker for two minutes at 500 rpm and subsequently incubated at room temperature for 10 minutes. Following incubation, the plates were spun at 3000×g for 30 seconds, then sealed with an optical adhesive cover, and luminescence readings were measured with an EnVision Plate Reader (Perkin Elmer).
Data was normalized using zero luminescence for baseline. A four-parameter non-linear regression curve fit was applied to dose-response data in GraphPad Prism data analysis software to determine the half-maximal growth inhibitory concentration (GI50) for each test compound.

[4] = test system: T-Rex 293 cell line SC cells having increased expression of BCL6 protein; assay: Cellular growth inhibition assay, T-Rex 293 SC cells with doxycycline (CellTiter-Glo); assay type: cell-based; settings: T-Rex 293 SC cells with 10 ng/mL doxycycline (increased BCL6 expression), 72 hours, CellTiter-Glo 2.0
[5] = target: T2, His-tagged BRD4 BD2 (333-460) (Homo sapiens, UniProt O60885); assay: AlphaLISA competition assay, BRD4 BD2; assay type: binding; settings: BRD4-BD2, AlphaLISA competition with biotinylated histone H4K5/8/12/16(Ac) peptide, 20 nM
T2 construct: The same assay was developed for His-tagged BRD4 BD2 (333-460) and biotinylated histone H4K5/8/12/16(Ac) peptide
Procedure, shortened: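 His-tagged BRD4 BD2 (333-460) and biotinylated H4K5/8/12/16(Ac) peptide at 20 nM final, in 20 mM HEPES pH 7.5, 100 mM NaCl, 0.5 mM TCEP, 0.1% BSA, 0.02% CHAPS. Compounds incubated 1 h at room temperature, then streptavidin acceptor and nickel chelate donor beads added. IC50 derived from AlphaLISA signal.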

[6] = target: T3, biotinylated BCL6 (5-129) (Homo sapiens, UniProt P41182); assay: SPR assay for binding affinity to BCL6; settings: Biacore 8K, 25° C., immobilized biotinylated BCL6 (5-129)
T3 construct: biotinylated BCL6 (5-129) was diluted in 10 mM HEPES pH 7.4; biotin (biotinylated)
Experimental: Exemplary compounds were tested for ability to bind to B-cell lymphoma 6 (BCL6) protein.
Binding studies by surface plasmon resonance (SPR) were performed using a Biacore 8K (Cytiva) instrument at 25° C. Briefly, biotinylated BCL6 (5-129) was diluted in 10 mM HEPES pH 7.4, 150 mM NaCl, 0.05% Surfactant P20, 0.5 mM TCEP, 3% DMSO to 1-5 μg/mL and was immobilized on an SA sensor chip (Cytiva, BR100032), resulting in surface densities at 1000-3000 resonance units (RUs). Test compounds were serially diluted five times in the same buffer and were injected to the immobilized surface. Kinetic determination experiments were performed using single-cycle kinetics with 110-120 s contact time, 1000-4000 s dissociation time, 30 μL/min flow rate. Binding data were analyzed by using Biacore insight evaluation software to determine KD values for test compounds.

[7] = test system: Farage cell line; assay: Cellular growth inhibition assay, Farage cells (CellTiter-Glo); assay type: cell-based; settings: Farage cell line (DLBCL), 72 hours, CellTiter-Glo 2.0
Procedure, shortened: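 DLBCL lines Su-DHL-4 and Farage were seeded at 3000 cells/well in RPMI-1640 with 10% FBS. Compound dilutions (final DMSO 0.5%) were added 24 h later and incubated 72 h at 37C. Viability was read by CellTiter-Glo 2.0 luminescence, and GI50 came from four-parameter fits.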

CNC(=O)COc1cc2cc(Nc3nc(N4CCC(CCN5CCN(CCOc6cccc(Oc7ccc(C(C)(C)O)cc7-c7cn(C)c(=O)c8[nH]ccc78)c6)CC5)CC4)ncc3Cl)ccc2n(C)c1=O [Compound I-24]
GI50 [1]: < 500 nM | IC50 [2]: 50 to 500 nM | GI50 [3]: < 500 nM | GI50 [4]: < 500 nM | IC50 [5]: < 5 nM | Kd [6]: 1 to 10 nM | GI50 [7]: < 500 nM

CNC(=O)COc1cc2cc(Nc3nc(N4CCC5(CC4)CC(Oc4ccc(C6=N[C@@H](Cc7ncco7)c7nnc(C)n7-c7sc(C)c(C)c76)cc4)C5)ncc3Cl)ccc2n(C)c1=O [Compound I-25, 2-[[6-[[5-chloro-2-[2-[4-[(9S)-4,5,13-trimethyl-9-(oxazol-2-ylmethyl)-3-thia-1,8,11,12-tetrazatricyclo[8.3.0.02,6]trideca-2 (6),4,7,10,12-pentaen-7-yl]phenoxy]-7-azaspiro[3.5]nonan-7-yl]pyrimidin-4-yl]amino]-1-methyl-2-oxo-3-quinolyl]oxy]-N-methyl-acetamide]
GI50 [1]: < 500 nM | IC50 [2]: 5 to 50 nM | GI50 [3]: < 500 nM | GI50 [4]: < 500 nM | IC50 [5]: < 5 nM | Kd [6]: > 100 nM | GI50 [7]: < 500 nM

CNC(=O)COc1cc2cc(Nc3nc(N4CCCC5(CC(Oc6ccc(C7=N[C@@H](Cc8ncco8)c8nnc(C)n8-c8sc(C)c(C)c87)cc6)C5)C4)ncc3Cl)ccc2n(C)c1=O (stereo partly drawn) [Compound I-27]
GI50 [1]: < 500 nM | IC50 [2]: 5 to 50 nM | GI50 [3]: < 500 nM | GI50 [4]: < 500 nM | IC50 [5]: < 5 nM | Kd [6]: > 100 nM | GI50 [7]: < 500 nM
